Data reported in patent US11859205B2, “Medium for culturing stem cells” (AJINOMOTO CO., INC., priority 2013, dated 2024).

Legend:
iPS cells = assay: Viable iPS cell number with purified albumin re-carrying fatty acid (Example 4, FIG. 4); assay type: cell-based, human; details: fatty acid re-adsorbed to albumin, 1 week
Description: Proliferative effect of various test compounds on induced pluripotent stem cell (iPS cell) was evaluated. As the iPS cell, 201B7 strain purchased from iPS Academia Japan, Inc. was used. Cell culture was performed under conditions of 5% CO2/37° C. and using a culture vessel (Nippon Becton Dickinson Company, Ltd., Falconculture petri dish or Falconculture plate) coated with a basal membrane matrix.
Various test compounds were added at given concentrations to a medium of “E8” composition (disclosed in Nature Methods, 2011, 8, 424-429, which is incorporated herein by reference in its entirety) currently considered to be the minimum composition for cultivating human pluripotent stem cells, and used for culture, from which the effect was studied.
The solution was shaken at 37° C. for 7 hours, left standing at 4° C. overnight, and filtered with a 0.22 μm syringe filter. […] The mixture was added to a medium such that the final concentration of albumin was 2.6 g/L.
The final concentration in and the amount of addition to the medium are also the same.
Using the medium produced as mentioned above, the influence of each fatty acid on the proliferation of iPS cells was studied. A 6-well plate coated with a fragment containing an active domain of laminin 511 at 5 μg/well (iMatrix-511 (Nippi, Incorporated)) as a basal membrane matrix was used. iPS cells were single-cell seeded at 13,000 cells/well and cultured for 1 week. Y-27632 (NACALAI TESQUE, INC.: 08945-84) was added at a final concentration of 10 μM only to a medium to be used for seeding. As a positive control, iPS cells were cultured using an albumin free of re-adsorption of fatty acid, i.e., albumin after a fatty acid removal treatment.
The cells were detached from each well by TrypLE Select (Life Technologies: 12563-011), and the number of the viable cells was measured.

stem cells = details: WO 2013/006675; cited from earlier work
[1] = final concentration in medium 28 μM
[2] = final concentration in medium 57 μM

CCCCCCCCCCCCCCCC(=O)O [palmitic acid]
effect on proliferation of iPS cells (number of viable cells) (iPS cells; [1]): the cells died
effect on proliferation of iPS cells (number of viable cells) (iPS cells; [2]): the cells died

CCCCCCCC/C=C\CCCCCCCC(=O)O [oleic acid]
effect on proliferation of iPS cells (number of viable cells) (iPS cells; [1]): smaller than that of the positive control
effect on proliferation of iPS cells (number of viable cells) (iPS cells; [2]): smaller than that of the positive control

CCCCC/C=C\C/C=C\CCCCCCCC(=O)O [linoleic acid]
effect on proliferation of iPS cells (number of viable cells) (iPS cells; [1]): markedly suppressed
effect on proliferation of iPS cells (number of viable cells) (iPS cells; [2]): the cells died

CCCCCCCC(=O)O [octanoic acid]
effect on culture of stem cells (stem cells): harmful

CCCCCCCCCCCCCCCCCC(=O)O [stearic acid]
effect on proliferation of iPS cells (number of viable cells) (iPS cells; [1]): the cells died
effect on proliferation of iPS cells (number of viable cells) (iPS cells; [2]): the cells died

CCCCC/C=C\C/C=C\C/C=C\C/C=C\CCCC(=O)O [arachidonic acid]
effect on proliferation of iPS cells (number of viable cells) (iPS cells; [1]): the cells died
effect on proliferation of iPS cells (number of viable cells) (iPS cells; [2]): the cells died
